Assay results from US20240300886A1, “ARYLCYCLOHEXYLAMINE DERIVATIVES AND THEIR USE IN THE TREATMENT OF PSYCHIATRIC DISORDERS” (GILGAMESH PHARMACEUTICALS, INC., priority 2021, published 2024).

Experiment: Metabolic stability in dog liver microsomes (DLM)
Format: in vitro ADME, beagle dogs
Conditions: not given
Method: (§1) DLM Stability. Pooled DLM from male beagle dogs (XenoTech D1000) were used. Microsomal incubations were carried out in multi-well plates. Liver microsomal incubation medium consisted of PBS (100 mM, pH 7.4), MgCl2 (1 mM), and NADPH (1 mM), with 0.50 mg of liver microsomal protein per mL. Control incubations were performed by replacing the NADPH-cofactor system with PBS. Test compounds (1 μM, final solvent concentration 1.0%) were incubated with microsomes at 37° C. with constant shaking. Six time points over 60 minutes were analyzed, with 60 μL aliquots of the reaction mixture being drawn at each time point. The reaction aliquots were stopped by adding 180 μL of cold (4° C.) acetonitrile containing 200 ng/mL tolbutamide and 200 ng/mL labetalol as internal standards (TS), followed by shaking for 10 minutes, and then protein sedimentation by centrifugation at 4,000 rpm for 20 minutes at 4° C. Supernatant samples (80 μL) were diluted with water (240 μL) and analyzed for parent compound remaining using a fit-for-purpose liquid chromatography-tandem mass spectrometry (LC-MS/MS) method.
(§2) Data Analysis. The elimination constant (kel), half-life (t1/2) and intrinsic clearance (Clint) were determined in a plot of […] versus time, using linear regression analysis.

SMILES | stability in DLM (in words)
CN[C@@]1(c2ccc(F)cc2)CCCCC1=O [Compound 2R, (R)-2-(4-fluorophenyl)-2(methylamino)cyclohexan-1-one] | substantially more stable

Same assay, conditions: male, beagle, dog, pooled dog liver microsomes, pH 7.4, 1 μM compound, 0.50 mg protein/mL, NADPH

SMILES | half-life at 1 μM | microsomal CLint at 1 μM
CNC1(c2ccccc2Cl)CCCCC1=O (racemic) [racemic ketamine, ketamine] | 2.4 min | 589 µL/min/mg
CN[C@@]1(c2ccc(F)cc2)CCCCC1=O [Compound 2R, (R)-2-(4-fluorophenyl)-2(methylamino)cyclohexan-1-one] | 38.7 min | 35.8 µL/min/mg

Experiment: Metabolic stability in cynomolgus monkey liver microsomes (CLM)
Format: in vitro ADME, cynomolgus monkeys
Conditions: not given
Method: as §1, with “CLM” for “DLM”, “cynomolgus monkeys (Corning 452413)” for “beagle dogs (XenoTech D1000)”, “(IS),” for “(TS),”
as §2

SMILES | stability in CLM (in words)
CN[C@@]1(c2ccc(F)cc2)CCCCC1=O [Compound 2R, (R)-2-(4-fluorophenyl)-2(methylamino)cyclohexan-1-one] | substantially more stable

Same assay, conditions: male, cynomolgus monkey, pooled cynomolgus monkey liver microsomes, pH 7.4, 1 μM compound, 0.50 mg protein/mL, NADPH

SMILES | half-life at 1 μM | microsomal CLint at 1 μM
CN[C@@]1(c2ccc(F)cc2)CCCCC1=O [Compound 2R, (R)-2-(4-fluorophenyl)-2(methylamino)cyclohexan-1-one] | 62.3 min | 22.2 µL/min/mg

Experiment: Oral bioavailability in mice, Method B (plasma and brain PK)
Format: in vivo, C57BL/6 mice
Conditions: male, C57BL/6; mouse brain, Method B, 1 mg/kg iv; read-out: t1/2 (iv)
Method: Animals. Male C57BL/6 mice were used in these studies. Animals were randomly assigned to treatment groups and were fasted for 4 h before dosing.
Drugs. Test compounds were dissolved in a vehicle consisting of normal saline (for compounds used as the HCl salt) or normal saline slightly acidified with aq. HCl (for freebase compounds). They were then administered intravenously (iv) or orally (po) at a dose of 1 or 10 mg/kg (calculated based on freebase), as indicated, and at a volume of 5 mL/kg body weight. Compounds were tested as the racemates or pure enantiomers, as indicated.
Sample Collection and Bioanalysis. Blood samples (approximately 60 μL) were collected under light isoflurane anesthesia (Surgivet®) from the retro orbital plexus at 0.08, 0.25, 0.5, 1, 2, 4, 8, and 24 h (4 animals per time point). Immediately after blood collection, plasma was harvested by centrifugation at 4,000 rpm for 10 min at 4° C. and samples were stored at −70±10° C. until bioanalysis. Following blood collection, animals were immediately sacrificed, the abdominal vena-cava was cut open, and the whole body was perfused from the heart using 10 mL of normal saline, and brain samples were collected from all animals. After isolation, brain samples were rinsed three times in ice-cold normal saline (for 5-10 seconds/rinse using ˜5-10 mL, normal saline in disposable petri dish for each rinse) and dried on blotting paper. Brain samples were homogenized using ice-cold phosphate-buffered saline (pH 7.4). Total homogenate volume was three times the tissue weight. All homogenates were stored at −70±10° C. until bioanalysis. For bioanalysis, 25 μL aliquots of plasma/brain study samples or spiked plasma/brain calibration standards were added to individual pre-labeled micro-centrifuge tubes followed by 100 μL of an internal standard solution (glipizide, 500 ng/mL in acetonitrile) except for blanks, where 100 μL of acetonitrile was added. Samples were vortexed for 5 minutes and then centrifuged for 10 minutes at 4,000 rpm at 4° C. Following centrifugation, 100 μL of each clear supernatant was transferred to a 96 well plate and analyzed with a fit-for-purpose LC-MS/MS method, with authentic samples of each analyte used for calibration and identification.
Data Analysis. Pharmacokinetic parameters were estimated using the non-compartmental analysis tool of Phoenix® WinNonlin software (Ver 8.0).

SMILES | half-life
CN[C@@]1(c2ccc(F)cc2)CCCCC1=O [Compound 2R, (R)-2-(4-fluorophenyl)-2(methylamino)cyclohexan-1-one] | 23.4 min

Same assay, conditions: male, C57BL/6; mouse brain, Method B, 1 mg/kg po

SMILES | Cmax
CN[C@@]1(c2ccc(F)cc2)CCCCC1=O [Compound 2R, (R)-2-(4-fluorophenyl)-2(methylamino)cyclohexan-1-one] | 177 ng/g

Same assay, conditions: male, C57BL/6; mouse brain, Method B, 1 mg/kg po; read-out: t1/2 (po)

SMILES | half-life
CN[C@@]1(c2ccc(F)cc2)CCCCC1=O [Compound 2R, (R)-2-(4-fluorophenyl)-2(methylamino)cyclohexan-1-one] | 36 min

Same assay, conditions: male, C57BL/6; mouse plasma, Method B, 1 mg/kg iv; read-out: t1/2 (iv)

SMILES | half-life
CN[C@@]1(c2ccc(F)cc2)CCCCC1=O [Compound 2R, (R)-2-(4-fluorophenyl)-2(methylamino)cyclohexan-1-one] | 45 min

Same assay, conditions: male, C57BL/6; mouse plasma, Method B, 1 mg/kg iv; values represent AUC0-last; read-out: AUC0-inf (iv) (converted)

SMILES | AUC(0-inf)
CN[C@@]1(c2ccc(F)cc2)CCCCC1=O [Compound 2R, (R)-2-(4-fluorophenyl)-2(methylamino)cyclohexan-1-one] | 96.3 ng·h/mL

Same assay, conditions: male, C57BL/6; mouse plasma, Method B, 1 mg/kg po

SMILES | Cmax
CN[C@@]1(c2ccc(F)cc2)CCCCC1=O [Compound 2R, (R)-2-(4-fluorophenyl)-2(methylamino)cyclohexan-1-one] | 53.6 ng/mL

Same assay, conditions: male, C57BL/6; mouse plasma, Method B, 1 mg/kg po; read-out: t1/2 (po)

SMILES | half-life
CN[C@@]1(c2ccc(F)cc2)CCCCC1=O [Compound 2R, (R)-2-(4-fluorophenyl)-2(methylamino)cyclohexan-1-one] | 29.4 min

Same assay, conditions: male, C57BL/6; mouse plasma, Method B, 1 mg/kg po; values represent AUC0-last; read-out: AUC0-inf (po) (converted)

SMILES | AUC(0-inf)
CN[C@@]1(c2ccc(F)cc2)CCCCC1=O [Compound 2R, (R)-2-(4-fluorophenyl)-2(methylamino)cyclohexan-1-one] | 38.8 ng·h/mL

Same assay, conditions: mice

SMILES | brain exposure after oral administration compared to enantiomer 2S
CN[C@@]1(c2ccc(F)cc2)CCCCC1=O [Compound 2R, (R)-2-(4-fluorophenyl)-2(methylamino)cyclohexan-1-one] | substantially higher brain exposure

Same assay, conditions: mouse brain, Method B, 1 mg/kg iv; values represent AUC0-last

SMILES | AUC0-inf (iv)
CN[C@@]1(c2ccc(F)cc2)CCCCC1=O [Compound 2R, (R)-2-(4-fluorophenyl)-2(methylamino)cyclohexan-1-one] | 17,791 ng*min/g

Same assay, conditions: mouse brain, Method B, 1 mg/kg po; values represent AUC0-last

SMILES | AUC0-inf (po)
CN[C@@]1(c2ccc(F)cc2)CCCCC1=O [Compound 2R, (R)-2-(4-fluorophenyl)-2(methylamino)cyclohexan-1-one] | 5,890 ng*min/g

Same assay, conditions: mouse brain, Method B, 1 mg/kg; calculated based on brain exposure (AUC0-last)

SMILES | F
CN[C@@]1(c2ccc(F)cc2)CCCCC1=O [Compound 2R, (R)-2-(4-fluorophenyl)-2(methylamino)cyclohexan-1-one] | 33%

Same assay, conditions: mouse plasma, Method B, 1 mg/kg; based on AUC0-last

SMILES | F
CN[C@@]1(c2ccc(F)cc2)CCCCC1=O [Compound 2R, (R)-2-(4-fluorophenyl)-2(methylamino)cyclohexan-1-one] | 40%
